Experimental data as given in patent US20110281852A1 (priority 2010, published 2011).

Experiments:
PPARγ = assay: Immunoblotting, PPARγ protein in 3T3-L1; type: cell-based, mouse; details: 8 days
Method: Immunoblotting: Protein expression of SREBP-1, PPARγ, and C/EBPα relative to 3-actin was assessed by Western Blot. Total proteins were isolated from 3T3-L1 cells treated with compounds or vehicles for 8 days. The cells were washed twice with PBS, lysed in a HEPES-Tx-PI buffer (910 mM HEPES, 5 mM EDTA, 350 mM Sucrose, 1 μg/ml leupeptin, 1 μg/ml pepstatin, 1% Triton-X, 1 mM PMSF), processed with 25G needles and centrifuged at 12,000 rpm for 5 min. Protein concentration was determined using the Micro BCA Protein Assay Kit (Fisher Scientific, Pittsburgh, Pa., USA) following the manufacturers instructions. 25 μg proteins were loaded and separated by electrophoresis using the BioRad Electrophoretic System (65 V for 7 hour). The proteins were then transferred to nitrocellulose membranes at 40 V overnight. The membrane was blocked for 1 hour at room temperature in 5% nonfat milk in Tris-buffered saline (TBS), then washed with Tween-20-TBS (TTBS, 0.1% Tween-20) three times (15 min, 5 min, 5 min), followed by incubation with primary antibodies SREBP-1 (dilution 1:200), PPARγ (dilution 1:200), C/EBPα (dilution 1:200) (all purchased from Santa Cruz Biotechnology, Santa Cruz, Calif., USA) and 3-actin (dilution 1:1000, Sigma-Aldrich, St. Louis, Mo., USA) at room temperature for 2 hours. […]

[1] = tested on: low density lipoprotein receptor (LDLR); assay: Real-time RT-PCR, LDLR mRNA in 3T3-L1; type: cell-based, mouse; details: 8 days
From the text: Realtime RT-PCR: Real-time reverse transcriptase polymerase chain reaction (RT-PCR) analysis was used to measure mRNA expression of genes SREBP-1, PPARγ, C/EBPα, low density lipoprotein receptor (LDLR), Adiponectin, and fatty acid synthase (FAS) under the control of β-actin. Briefly, total RNA was isolated from 3T3-L1 cells following treatment for 8 days with Trizol reagent (Invitrogen, Carlsbad, Calif., USA) according to the manufacturer's instruction. RNA was quantified using absorption of light at 260 nm, and sample purity was checked by OD 260 nm/280 nm. 0.8 μg of total RNA from each sample was used for reverse transcription reaction using the TaqMan Reverse Transcription Reagents (Applied Biosystems, Foster City, Calif., USA) according to the manufacturers' instructions. PCR was done using the SYBR green Master Mix (Applied Biosystems, Foster City, Calif., USA) according to the manufacturers' instructions. The temperature cycling conditions of amplification were as follows: an initial step of denaturation at 95° C. for 10 min, 40 cycles of denaturation at 95° C. for 30 s, annealing at 55° C. for 30 s, and elongation at 72° C. for 30 s. Realtime RT-PCR was performed using Mx3000P Realtime Thermocyclers (Statagene, La Jolla, Calif., USA). The relative mRNA levels of these genes were calculated by 2-delta delta CT method and normalized with control groups.

[2] = 8 μM berberine + 15 μM clozapine
[3] = 8 μM berberine + 50 μM risperidone

COc1ccc2cc3[n+](cc2c1OC)CCc1cc2c(cc1-3)OCO2.[Cl-] [berberine, Berberine (Chloride Form)]
decrease of PPARγ protein expression vs clozapine treated group (PPARγ; [2]): 76% | decrease of PPARγ protein expression vs risperidone treated group (PPARγ; [3]): 85.7% | decrease of LDLR mRNA expression vs clozapine treated group [1, 2]: 82.3% | decrease of LDLR mRNA expression vs risperidone treated group [1, 3]: 90%
